Results taken from article PMC11468294, “Peptide Amphiphiles as Biodegradable Adjuvants for Efficient Retroviral Gene Delivery” (Advanced Healthcare Materials, 2023).
Where a SMILES comes first, the peptide text is derived from it. The star is where a group is joined. Palmitoyl = CCCCCCCCCCCCCCCC(=O)*

What was measured:
ThT fluorescence = assay type: physicochemical; set-up: key: + = ThT active; − = no ThT fluorescence observed; details: 1 mg mL-1 in PBS; ThT-active if fluorescence at least twice the control (PBS with 10% DMSO)
Method: ThT‐fluorescence: 20 µL 50 µM of ThT solution in PBS was pipetted in a black 384 well‐plate and 4 µL of the nanofibril solution 1 mg mL^−1 were added. For reference PBS with 10% DMSO (4 µL) instead of fibril solution was added. Subsequently, fluorescence emission was recorded λem = 488 nm upon excitation at λex = 440 nm with 10 nm bandwidth and multiple reads per well (3 × 3) using a Spark 20 M microplate reader (Tecan Group, Ltd). Data processing was performed with Origin software. A peptide fibril was considered as ThT‐active if the fluorescence intensity was at least twice as strong compared to the control (PBS containing 10% DMSO).

HeLa cells [1] = assay: Cell-PA interaction by confocal laser scanning microscopy; assay type: cell-based; details: peptide 20 µg mL-1 added for 30 min, washed, Proteostat stain
Method: (§1) Confocal laser scanning microscopy and degradation study with PA1‐3 and HeLa cells: HeLa cells were seeded one day prior to conducting the assay (40000/well) in an 8‐well IBIDI slide. 4 µL of the preformed peptide fibrils (1 mg mL^−1) were diluted with 4 µL Proteostat (Enzo Life Science, 1 µL stock in 999 µL PBS) and incubated for 10 min and further diluted with medium to receive a final peptide concentration of 20 µg mL^−1. The nucleus of the HeLa cells was stained with Hoechst 33 342 (NucBlue, Thermo Fisher Scientific). The peptide solution was transferred to the HeLa cells and incubated for 30 min at 37°C before washing three times with PBS. The interaction of fibril clusters with cells was monitored after 30 min incubation time on a Stellaris 8 confocal laser scanning microscope (Leica) equipped with a 20x air objective and laser excitation wavelengths of 405 nm (Hoechst) and 561 nm (Proteostat). For the evaluation of aggregate degradation, the samples were further incubated at 37°C for 3 d and analyzed without any additional washing step. The evaluation of aggregate size and number was conducted by analyzing Proteostat stained aggregates via the 3D objects counter function of ImageJ 1.53f51 for 3 individual measurements (area 581.25 µm × 581.25 µm). […] The number of aggregates larger than 10 µm^2 were counted via the 3D objects counter function of ImageJ 1.53f51. The mean number and standard deviations were determined by averaging at least three technical triplicates.
Figure S6 Laser scanning microscopy micrographs of A cells only (control), and Proteostat-stained (red) peptides B EF-
C ([…]), C PA1, D PA2, E PA3, F P1, G P2, H P3 added to HeLa cells (nucleus in blue). The peptides (20 µg mL-
1) were added to cells for 30 min, washed and analyzed. […]

[2] = system: GALV-RV transduction of Jurkat cells; assay: γ-Retroviral infection assay of Jurkat cells (GFP+ cells by flow cytometry); assay type: cell-based; details: three days after transduction, increasing peptide concentration, performed once
Method: γ‐Retroviral Infection Assay of Jurkat cells: 50000 Jurkat cells were seeded in 180 µl supplemented RPMI. The cells were inoculated with 20 µl PNF solution 1:1 (v/v) mixed with virus (1:3.2 dilution) after an incubation time of 10 min. The effect of peptide fibrils on retroviral transduction of Jurkat cells was analyzed 3 days post infection by determining the percentage of GFP + cells by flow cytometry. All assays were conducted as described before.^[ [20] ^]

HeLa cells [3] = assay: Confocal microscopy degradation study with PA1-3 and HeLa cells; assay type: in vitro ADME; details: for degradation of aggregates > 10 µm^2 over 3 days: HeLa cells, 4 µg peptide (20 µg mL-1) added to 40,000 cells, 37°C, 30 min vs 3 d, Proteostat stain, confocal microscopy
Method: as §1

[4] = Control experiments degradation analysis without cells; assay type: physicochemical; details: Proteostat-stained fibrils without cells, 37°C, 30 min vs 3 d
Method: Control experiments degradation analysis: To check changes of fibril aggregation without cells fluorescence microscopy measurements (Leica DMi8 microscope, 10x air objective, Leica MC170 HD camera, λem = 527/30 nm, λex = 480/40 nm) were performed analogously to the cell‐experiments with PA1‐3. Briefly, 4 µL of the preformed peptide fibrils (1 mg mL^−1) were diluted with 4 µL Proteostat (Enzo Life Science, 1 µL stock in 999 µL PBS) and incubated for 10 min and further diluted with medium to receive a final peptide concentration of 20 µg mL^−1. The fibril aggregates were monitored after 30 min incubation at 37°C and for the evaluation of aggregate degradation, the samples were further incubated at 37°C for 3 d and analyzed without any additional washing step. […] The evaluation of aggregate size and number was conducted by analyzing Proteostat stained aggregates via the 3D objects counter function of ImageJ 1.53f51 for at least three individual measurements (area 1331.2 µm × 1331.2 µm) of three individually repeated experiments. […]
Aggregate analysis was conducted via fluorescence microscopy by cumulating triplicate measurements. […]

[5] = Zeta-potential measurement; assay type: physicochemical; details: fibrils 1 mg mL-1 in PBS, 60 µL diluted in 600 µL 1 mM KCl; triplicates
Method: Zeta‐potential: 60 µL of the peptides (1 mg mL^−1) were diluted in 600 µL, 1 mM KCl solution and placed in a disposable folded capillary cuvette. All zeta‐potential measurements (Zetasizer, Malvern Instruments) were conducted in triplicates for each sample.

Row | Compound | ThT fluorescence (ThT fluorescence) | association with cellular membranes (HeLa cells [1]) | transduction enhancement of Jurkat cells (GFP+ cells, in words) [2] | degradation of aggregates > 10 µm^2 over 3 days (HeLa cells [3]) [%] | aggregate size (large aggregates) (HeLa cells [3]; confocal aggregate size analysis with HeLa cells) [µm^2] | change of aggregate size and number without cells [4] | Zeta-Potential [5]
1 | CCCCCCCCCCCCCCCC(=O)N[C@@H](Cc1ccccc1)C(=O)N[C@@H](CCC(N)=O)C(=O)N[C@@H](Cc1ccccc1)C(=O)N[C@@H](CCCCN)C(=O)N[C@@H](Cc1ccccc1)C(=O)N[C@@H](CCCCN)C(=O)N[C@@H](CS)C(N)=O [PA2] (Palmitoyl-FQFKFKC-NH2) | + | association with cellular membranes | strong transduction enhancement similar to EF‐C | 52 | > 50 | not significantly changing in size and number | +19.2 ± 3.4 mV
2 | C16-VVVAAAKKK-NH2 [PA1] | + | association with cellular membranes | strong transduction enhancement similar to EF‐C | 94 | – | not significantly changing in size and number | +22.2 ± 0.7 mV
